Consider 40 compounds from patent US10611750B2, “Tetrahydroquinoline compositions as bet bromodomain inhibitors” (FORMA Therapeutics, Inc., priority 2013, dated 2020).

The structures appear in SMILES notation. Some results are limits rather than exact numbers.

Usually IC50 stands for the point on the concentration scale where inhibition reaches its midpoint. Lower therefore signals higher potency.

For test [1], the target named is T1, BRD4 Bromodomain 1 (BRD4 BD1) (Homo sapiens, UniProt O60885).
T1 construct: 44-168 and BRD4 BD2
The experiment in a line: AlphaScreen binding assay, BRD4 BD1. The settings on record: His-tagged BRD4 BD1 50 nM, biotinylated H4 (1-21) K5/8/12/16 tetra-acetylated peptide 50 nM, compounds listed under IC50 range headings. Summed up:
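Compound dilution series were mixed with His-tagged BRD4 bromodomain and biotinylated tetra-acetylated H4 (1-21) peptide at pH 7.3 (BD1 and peptide at 50 nM, BD2 and peptide at 100 nM). Donor and acceptor beads were then added, and plates were equilibrated at least 1 h before reading. IC50 values were fitted with a four-parameter logistic model.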
(In general: Alpha assays give light when donor and acceptor beads are brought close together.)

Test [2] addresses T2, BRD4 Bromodomain 2 (BRD4 BD2) (Homo sapiens, UniProt O60885).
T2 construct: 333-460 were cloned, expressed, and purified to homogeneity
Description: AlphaScreen binding assay, BRD4 BD2. The note with it: His-tagged BRD4 BD2 100 nM, biotinylated H4 (1-21) K5/8/12/16 tetra-acetylated peptide 100 nM, compounds listed under IC50 range headings. On the procedure:
The binding of Example compounds to BRD4 Bromodomain 1 and BRD4 Bromodomain 2 was assessed using 384-well AlphaScreen assay technology. His-epitope tagged BRD4 BD144-168 and BRD4 BD2333-460 were cloned, expressed, and purified to homogeneity. BRD4 BD1 and BRD4 BD2 binding and inhibition was assessed by monitoring the engagement of biotinylated Histone H4 (1-21) K5/8/12/16 tetra-acetylated peptide with the targets using the AlphaScreen technology (PerkinElmer). Specifically, in a 384-well black or white flat bottom plate, BRD4 BD1 (50 nM final) or BRD4 BD2 (100 nM final) was combined with peptide (50 nM final for BD1 or 100 nM final for BD2) in 50 mM HEPES (pH 7.3), 100 mM NaCl, 0.1% (w/v) BSA, and 0.01% (w/v) Triton X-100 either in the presence of DMSO (final 1.25% DMSO) or compound dilution series in DMSO. Alpha streptavidin donor beads and Nickel-chelate acceptor beads were added to a final concentration of 10 μg/ml each. After a minimum of 1 hour equilibration, plates were read on a BMG PHERAstar FS multi-label reader (BMG LabTech). The half maximal inhibitory concentration (IC50) values were calculated using IDBS Activity Base software with a four parameter logistic curve fit by the equation y=A+((B−A)/(1+((C/x)^D))), wherein A denotes the bottom plateau of the curve, B denotes the top plateau of the curve, C denotes the x value at the middle of the curve, D denotes the slope factor, x denotes the original known x values, and y denotes the original known y values. Data was fitted using the Levenburg Marquardt algorithm.

In the case of `COC(=O)N1c2ccc(-c3cnn(C4CC4)c3)c(OC3CN(C(=O)OC(C)(C)C)C3)c2CC[C@@H]1C` [I-58, (S)-methyl 5-(1-(tert-butoxycarbonyl)azetidin-3-yloxy)-6-(1-cyclopropyl-1H-pyrazol-4-yl)-2-methyl-3,4-dihydroquinoline-1(2H)-carboxylate], the results for the IC50 in test [1] and in test [2] were at least 10000 nM and at least 500 nM, respectively.
In the same order, the values of `COC(=O)N1c2ccc(-c3cnn(C4CC4)c3)c(OC3CNC3)c2CC[C@@H]1C` [I-59, (S)-methyl 5-(azetidin-3-yloxy)-6-(1-cyclopropyl-1H-pyrazol-4-yl)-2-methyl-3,4-dihydroquinoline-1(2H)-carboxylate] are 1000 to 10000 nM and at least 500 nM.
Regarding `COC(=O)N1c2ccc(-c3cnn(C4CC4)c3)c(OCC3(F)COC3)c2CC[C@@H]1C` [I-65, (S)-methyl 6-(1-cyclopropyl-1H-pyrazol-4-yl)-5-((3-fluorooxetan-3-yl)methoxy)-2-methyl-3,4-dihydroquinoline-1(2H)-carboxylate], the figures for the IC50 in test [1] and in test [2] were 1000 to 10000 nM and 50 to 500 nM, respectively.
In the same order, the values of `CC(=O)N1c2ccc(-c3cnn(C4COC4)c3)c(Oc3nc4ccccc4o3)c2CC[C@@H]1C` [I-79, (S)-1-(5-(benzo[d]oxazol-2-yloxy)-2-methyl-6-(1-(oxetan-3-yl)-1H-pyrazol-4-yl)-3,4-dihydroquinolin-1(2H)-yl)ethanone] are 100 to 1000 nM and 50 to 500 nM.
In the same order, the values of `CC(=O)N1c2ccc(-c3cnn(C4CC4)c3)c(Oc3nccc(C(F)(F)F)n3)c2CC[C@@H]1C` [I-85, (S)-1-(6-(1-cyclopropyl-1H-pyrazol-4-yl)-2-methyl-5-(4-(trifluoromethyl)pyrimidin-2-yloxy)-3,4-dihydroquinolin-1 (2H)-yl)ethanone] are 1000 to 10000 nM and 50 to 500 nM.
Taken in the same sequence, the figures for `CC(=O)N1c2ccc(-c3cnn(C4CC4)c3)c(Oc3ncccc3Cl)c2CC[C@@H]1C` [I-87, (S)-1-(5-(3-chloropyridin-2-yloxy)-6-(1-cyclopropyl-1H-pyrazol-4-yl)-2-methyl-3,4-dihydroquinolin-1 (2H)-yl)ethanone] were 1000 to 10000 nM and 50 to 500 nM.
On to `CC(=O)N1c2ccc(-c3cnn(C4CC4)c3)c(Oc3nc(C)cc(C)n3)c2CC[C@@H]1C` [I-90, (S)-1-(6-(1-cyclopropyl-1H-pyrazol-4-yl)-5-(4,6-dimethylpyrimidin-2-yloxy)-2-methyl-3,4-dihydroquinolin-1 (2H)-yl)ethanone], for which the IC50 in test [1] lay in the range of 1000 to 10000 nM; in test [2] it was 50 to 500 nM.
In the same order, the values of `CC(=O)N1c2ccc(-c3cnn(C4CC4)c3)c(O/C=C/Cl)c2CC[C@@H]1C` [I-277, (S,E)-1-(5-(2-chlorovinyloxy)-6-(1-cyclopropyl-1H-pyrazol-4-yl)-2-methyl-3,4-dihydroquinolin-1(2H)-yl)ethanone] are 1000 to 10000 nM and 50 to 500 nM.
On to `CNC(=O)COc1c(-c2cnn(C3COC3)c2)ccc2c1CC[C@H](C)N2C(C)=O` [I-378], for which the IC50 in test [1] lay within 1000 to 10000 nM; in test [2], 50 to 500 nM.
Taken in the same sequence, the figures for `CC(=O)N1c2ccc(-c3cnn(C4COC4)c3)c(OCc3ccno3)c2CC[C@@H]1C` [I-379] were 1000 to 10000 nM and 50 to 500 nM.
Taken in the same sequence, the figures for `CC(=O)N1c2ccc(-c3cnn(C4COC4)c3)c(OCCNS(C)(=O)=O)c2CC[C@@H]1C` [I-380] were 1000 to 10000 nM and 50 to 500 nM.
Regarding `CC(=O)N1c2ccc(-c3cnn(C4CC4)c3)c(OCc3ccno3)c2CC[C@@H]1C` [I-381], the figures for the IC50 in test [1] and in test [2] were 1000 to 10000 nM and 50 to 500 nM, respectively.
Regarding `CNC(=O)COc1c(-c2cnn(C3CC3)c2)ccc2c1CC[C@H](C)N2C(C)=O` [I-383], the IC50 was 1000 to 10000 nM in test [1] and 50 to 500 nM in test [2].
`CC(=O)N1c2ccc(-c3cnn(C4CC4)c3)c(OC3COC3)c2CC[C@@H]1C` [I-384]: the IC50 in test [1] is 1000 to 10000 nM; in test [2], 50 to 500 nM.
In the same order, the values of `CC(=O)N1c2ccc(-c3cnn(C4CC4)c3)c(OCCN(C)C)c2CC[C@@H]1C` [I-386] are 1000 to 10000 nM and at least 500 nM.
`CC(=O)N1c2ccc(-c3cnn(C4CC4)c3)c(OCC(N)=O)c2CC[C@@H]1C` [I-391]: the IC50 was 1000 to 10000 nM in test [1] and at least 500 nM in test [2].
Taken in the same sequence, the figures for `CC(=O)N1c2ccc(-c3cnn(C4CC4)c3)c(OCc3ccccc3)c2CC[C@@H]1C` [I-393] were 1000 to 10000 nM and under 50 nM.
In the same order, the values of `CC(=O)N1c2ccc(-c3cnn(C4CC4)c3)c(OCC#N)c2CC[C@@H]1C` [I-397] are 1000 to 10000 nM and 50 to 500 nM.
On to `CC(=O)N1c2ccc(-c3cnn(C4CC4)c3)c(OCc3cccnc3)c2CC[C@@H]1C` [I-399], for which the IC50 lay in the range of 1000 to 10000 nM in test [1] and 50 to 500 nM in test [2].
Consider `CC(=O)N1c2ccc(-c3cnn(C4CC4)c3)c(OCc3ccccn3)c2CC[C@@H]1C` [I-403], for which the IC50 in test [1] was 1000 to 10000 nM; in test [2] it was 50 to 500 nM.
In the same order, the values of `COc1c(-c2cnn(C3CC3)c2)ccc2c1CC[C@H](C)N2C(C)=O` [I-404] are 1000 to 10000 nM and 50 to 500 nM.
In the same order, the values of `CC(=O)N1c2ccc(-c3cnn(C4CC4)c3)c(OCc3ccn(C)n3)c2CC[C@@H]1C` [I-405] are 1000 to 10000 nM and 50 to 500 nM.
Taken in the same sequence, the figures for `CC(=O)N1c2ccc(-c3cnn(C4CC4)c3)c(OCc3cncs3)c2CC[C@@H]1C` [I-406] were 1000 to 10000 nM and 50 to 500 nM.
Take `CC(=O)N1c2ccc(-c3cnn(CC(C)(C)O)c3)c(OCC3CCOCC3)c2CC[C@@H]1C` [I-414]: the half-maximal inhibitory concentration (IC50) lay within 1000 to 10000 nM in test [1] and 50 to 500 nM in test [2].
Turning to `CC(=O)N1c2ccc(-c3cnn(CCS(C)(=O)=O)c3)c(OCC(=O)N(C)C)c2CC[C@@H]1C` [I-417], the IC50 in test [1] is 1000 to 10000 nM; in test [2], 50 to 500 nM.
In the same order, the values of `CC(=O)N1c2ccc(-c3cnn(CC(C)(C)O)c3)c(OCC(=O)N(C)C)c2CC[C@@H]1C` [I-418] are 1000 to 10000 nM and 50 to 500 nM.
In the same order, the values of `CC(=O)N1c2ccc(-c3cnn(C4CCNCC4)c3)c(OCC(=O)N(C)C)c2CC[C@@H]1C` [I-419] are 1000 to 10000 nM and 50 to 500 nM.
In the same order, the values of `CC(=O)N1c2ccc(-c3cnn(CC(C)(C)O)c3)c(OCC(C)C)c2CC[C@@H]1C` [I-421] are 1000 to 10000 nM and 50 to 500 nM.
Regarding `CC(=O)N1c2ccc(-c3cnn(CCS(C)(=O)=O)c3)c(OCC(=O)N3CCCC3)c2CC[C@@H]1C` [I-428], the IC50 in test [1] was in the range of 1000 to 10000 nM; in test [2], 50 to 500 nM.
With `CC(=O)N1c2ccc(-c3cnn(CC(C)(C)O)c3)c(OCC(=O)N3CCCC3)c2CC[C@@H]1C` [I-429], the IC50 in test [1] lay in the range of 1000 to 10000 nM; in test [2] it was 50 to 500 nM.
With `CC(=O)N1c2ccc(-c3cnn(CCO)c3)c(OCC(=O)N3CCCC3)c2CC[C@@H]1C` [I-430], the figures for the IC50 in test [1] and in test [2] were 1000 to 10000 nM and 50 to 500 nM, respectively.
With `CC(=O)N1c2ccc(-c3cnn(CCS(C)(=O)=O)c3)c(OC[C@H]3CCC(=O)N3)c2CC[C@@H]1C` [I-432], the IC50 in test [1] was 1000 to 10000 nM; in test [2], 50 to 500 nM.
Turning to `CC(=O)N1c2ccc(-c3cnn(CC(C)(C)O)c3)c(OC[C@H]3CCC(=O)N3)c2CC[C@@H]1C` [I-433], the IC50 in test [1] was in the range of 1000 to 10000 nM; in test [2] it was 50 to 500 nM.
In the same order, the values of `CC(=O)N1c2ccc(-c3cnn(CCO)c3)c(OC[C@H]3CCC(=O)N3)c2CC[C@@H]1C` [I-434] are 1000 to 10000 nM and 50 to 500 nM.
Taken in the same sequence, the figures for `CC(=O)N1c2ccc(-c3cnn(C4CCNCC4)c3)c(OC[C@H]3CCC(=O)N3)c2CC[C@@H]1C` [I-435] were 1000 to 10000 nM and 50 to 500 nM.
Taken in the same sequence, the figures for `CC(=O)N1c2ccc(-c3cnn(CCS(C)(=O)=O)c3)c(OCCN(C)S(C)(=O)=O)c2CC[C@@H]1C` [I-436] were 1000 to 10000 nM and 50 to 500 nM.
Take `CC(=O)N1c2ccc(-c3cnn(CC(C)(C)O)c3)c(OCCN(C)S(C)(=O)=O)c2CC[C@@H]1C` [I-437]: the IC50 was in the range of 1000 to 10000 nM in test [1] and 50 to 500 nM in test [2].
Taken in the same sequence, the figures for `CC(=O)N1c2ccc(-c3cnn(CCO)c3)c(OCCN(C)S(C)(=O)=O)c2CC[C@@H]1C` [I-438] were 1000 to 10000 nM and 50 to 500 nM.
In the same order, the values of `CC(=O)N1c2ccc(-c3cnn(C4CCNCC4)c3)c(OCCN(C)S(C)(=O)=O)c2CC[C@@H]1C` [I-439] are 1000 to 10000 nM and 50 to 500 nM.
With `CC(=O)N1c2ccc(-c3cnn(CCO)c3)c(OC[C@H]3CCNC3)c2CC[C@@H]1C` [I-440], the IC50 was in the range of 1000 to 10000 nM in test [1] and 50 to 500 nM in test [2].
